Laboratory results published in article PMC10140954, “Thiolactones and Δ^8,9-Pregnene Steroids from the Marine-Derived Fungus Meira sp. 1210CH-42 and Their α-Glucosidase Inhibitory Activity” (Marine Drugs, 2023).

Target: α-glucosidase
Assay: α-glucosidase inhibition assay (pNPG substrate, absorbance at 405 nm)
Type: biochemical
Details: for IC50: 0.1 M PBS pH 7.4, 37 °C, α-glucosidase 0.2 U/mL, 5 mM pNPG, triplicate, read-out: α-Glucosidase inhibitory activity, IC50 (50% inhibitory concentration)
Method: All the assays were carried out under 0.1 M PBS buffer (pH 7.4, Sigma). The samples (10 mM) were dissolved with DMSO (Sigma) and diluted into gradient concentrations with PBS buffer. The pre-reaction mixture consisted of the 130 μL sample with 30 μL α-glucosidase solution (0.2 U/mL, Sigma) and shaken well, then added to a 96-well plate and placed at 37 °C for 10 min in an incubator. Subsequently, 40 μL of 5 mM p-nitrophenyl-α-D-glucopyranoside (pNPG, TCI) was added and further incubated at 37 °C for 20 min. Finally, the α-glucosidase inhibitory activity was determined by measuring the release of […] at 405 nm of the microplate reader. The negative control was prepared by adding PBS buffer instead of the sample in the same way as the test. The blank was prepared by adding PBS buffer instead of pNPG using the same method.

Question: `CC(=O)N[C@@H]1C(=O)SC[C@@H]1C` [Compound 1, 2S-acetamide-3R-methyl-thiolactone] was tested. Which IC50 did it give?
Answer: > 400 µM

Question: What about the “α-glucosidase inhibitory activity in words” value (at a concentration of 400 μM) of the same molecule?
Answer: weak inhibitory activity

Question: Which IC50 does the source give for `CC(=O)N[C@H]1C(=O)SC[C@@H]1C` [Compound 2, 2R-acetamide-3R-methyl-thiolactone] here?
Answer: 148 µM

Question: With `CC(=O)[C@H]1CC[C@H]2C3=C(CC[C@]12C)[C@@]1(C)CC[C@H](O)C[C@@H]1CC3` [Compound 3, Δ^8,9-3β-hydroxy-5α-17-acetyl steroid] as the molecule, how does the IC50 read?
Answer: 280 µM

Question: How did the IC50 turn out when `CC(=O)C1CCC2C3=C(CCC12C)C1(C)CCC(O)CC1CC3` (stereo not drawn) [Compound 4, Δ^8,9-3α-hydroxy-5α-17-acetyl steroid] was run?
Answer: 86 µM
